Results: the supplement of paper PMC6045584
± gives the standard deviation of the averaged measurements.

Experiments:
[1] = compound: CC(=O)NCC(=O)N1[C@@H]2CC[C@H]1c1ccc(Nc3ncc(C(F)(F)F)c(NC4CCC4)n3)cc12; assay: surviving fraction relative to DMSO-only wells; higher = less growth inhibition; conditions: exposure time: 5 days
Method in brief: (§1)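 Five days of continuous inhibitor exposure, at 0.5, 1, 5, 10, 50, 100, 500 and 1000 nM, followed a 24-hour period after log-phase tumour cell lines were seeded at 250–500 cells per well in 384-well plates. Surviving fraction was derived from CellTiter-Glo luminescence relative to the median of DMSO-only wells. Plates were read after 10 minutes at room temperature, and lines screened three times were kept only if replicate Pearson r >0.7 and median Z' >0.3.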

PACLITAXEL = compound: CC(=O)O[C@H]1C(=O)[C@@]2(C)[C@H]([C@H](OC(=O)c3ccccc3)[C@]3(O)C[C@H](OC(=O)[C@H](O)[C@@H](NC(=O)c4ccccc4)c4ccccc4)C(C)=C1C3(C)C)[C@]1(OC(C)=O)CO[C@@H]1C[C@@H]2O [PACLITAXEL]; assay: as above; conditions: exposure time: 5 days
Method in brief: as §1

Test System	surviving fraction ([1]; 0.5 nM)	surviving fraction ([1]; 1 nM)	surviving fraction ([1]; 5 nM)	surviving fraction ([1]; 10 nM)	surviving fraction ([1]; 50 nM)	surviving fraction ([1]; 100 nM)	surviving fraction ([1]; 500 nM)	surviving fraction ([1]; 1000 nM)	surviving fraction (PACLITAXEL; 0.5 nM)	surviving fraction (PACLITAXEL; 1 nM)	surviving fraction (PACLITAXEL; 5 nM)	surviving fraction (PACLITAXEL; 10 nM)	surviving fraction (PACLITAXEL; 50 nM)	surviving fraction (PACLITAXEL; 100 nM)	surviving fraction (PACLITAXEL; 500 nM)	surviving fraction (PACLITAXEL; 1000 nM)
HCC202 BREAST	1.54 ± 0.18	1.09 ± 0.18	1.44 ± 0.13	1.5 ± 0.21	1.46 ± 0.16	1.32 ± 0.4	1.32 ± 0.15	1.08 ± 0.26	1.15 ± 0.51	0.655 ± 0.15	0.377 ± 0.091	0.364 ± 0.12	0.362 ± 0.027	0.362 ± 0.047	0.352 ± 0.032	0.327 ± 0.098
MHM BONE	0.986 ± 0.016	0.989 ± 0.031	0.979 ± 0.019	0.999 ± 0.011	0.986 ± 0.034	0.96 ± 0.041	0.764 ± 0.02	0.629 ± 0.028	0.9897 ± 0.0049	0.992 ± 0.053	0.535 ± 0.021	0.339 ± 0.022	0.243 ± 0.0095	0.216 ± 0.011	0.187 ± 0.0059	0.177 ± 0.01
SUM159 BREAST	1.11 ± 0.22	1.08 ± 0.16	1.1 ± 0.21	1.07 ± 0.16	0.956 ± 0.085	0.72 ± 0.027	0.56 ± 0.014	0.436 ± 0.0095	1.13 ± 0.24	1.1 ± 0.15	0.57 ± 0.024	0.179 ± 0.0045	0.12 ± 0.0095	0.107 ± 0.0015	0.124 ± 0.0017	0.137 ± 0.02
SUM149.B1*.S BREAST	1 ± 0.017	1.01 ± 0.037	0.979 ± 0.017	0.976 ± 0.038	0.938 ± 0.047	0.685 ± 0.049	0.569 ± 0.024	0.499 ± 0.043	0.994 ± 0.029	1.02 ± 0.048	0.238 ± 0.027	0.158 ± 0.029	0.1 ± 0.0056	0.0972 ± 0.0036	0.091 ± 0.0063	0.097 ± 0.0076
MDAMB468 BREAST	0.977 ± 0.023	1.04 ± 0.046	1.05 ± 0.026	0.987 ± 0.041	1.03 ± 0.047	0.507 ± 0.047	0.146 ± 0.01	0.151 ± 0.018	0.973 ± 0.024	0.771 ± 0.056	0.144 ± 0.018	0.0737 ± 0.0015	0.064 ± 0.001	0.0567 ± 0.0091	0.057 ± 0.0036	0.0563 ± 0.013
MDAMB361 BREAST	0.96 ± 0.044	0.939 ± 0.041	0.88 ± 0.038	0.873 ± 0.02	0.922 ± 0.11	1.1 ± 0.05	1.09 ± 0.075	0.928 ± 0.093	0.974 ± 0.073	0.952 ± 0.028	0.887 ± 0.04	0.707 ± 0.021	0.585 ± 0.041	0.593 ± 0.056	0.516 ± 0.046	0.546 ± 0.027
SNU475 LIVER	0.9533 ± 0.0031	0.962 ± 0.038	0.9607 ± 0.0076	0.899 ± 0.051	0.902 ± 0.035	0.804 ± 0.035	0.686 ± 0.079	0.529 ± 0.041	0.8 ± 0.034	0.649 ± 0.026	0.282 ± 0.018	0.2 ± 0.023	0.142 ± 0.014	0.138 ± 0.0065	0.132 ± 0.029	0.137 ± 0.008
HCC78 LUNG	0.885 ± 0.16	0.798 ± 0.052	0.935 ± 0.13	0.878 ± 0.28	0.735 ± 0.07	0.188 ± 0.064	0.236 ± 0.082	0.298 ± 0.075	0.846 ± 0.3	0.486 ± 0.046	0.16 ± 0.036	0.104 ± 0.021	0.0717 ± 0.019	0.077 ± 0.011	0.0673 ± 0.013	0.1 ± 0.018
SJSA1 BONE	1.06 ± 0.086	1.08 ± 0.061	1.08 ± 0.047	1.03 ± 0.016	1.07 ± 0.026	0.95 ± 0.019	0.6 ± 0.013	0.531 ± 0.014	0.942 ± 0.048	0.833 ± 0.041	0.342 ± 0.0057	0.18 ± 0.013	0.135 ± 0.0021	0.113 ± 0.0021	0.107 ± 0.01	0.114 ± 0.017
JIMT1 BREAST	0.996 ± 0.044	1.01 ± 0.032	1 ± 0.036	0.97 ± 0.02	1.03 ± 0.053	0.763 ± 0.024	0.705 ± 0.0076	0.593 ± 0.029	0.618 ± 0.028	0.293 ± 0.024	0.16 ± 0.0026	0.119 ± 0.011	0.0905 ± 0.0083	0.0907 ± 0.0037	0.0727 ± 0.008	0.0808 ± 0.0025
OSHN BONE	1.01 ± 0.028	1 ± 0.029	1 ± 0.025	0.993 ± 0.05	0.991 ± 0.02	0.206 ± 0.0076	0.407 ± 0.036	0.218 ± 0.011	1.03 ± 0.025	1.05 ± 0.012	0.0353 ± 0.0015	0.0313 ± 0.0011	0.0273 ± 0.00058	0.0243 ± 0.00058	0.018	0.022 ± 0.001
SG32 HEADNECK	1.19 ± 0.078	1.02 ± 0.12	0.952 ± 0.044	1.14 ± 0.031	0.758 ± 0.26	0.474 ± 0.036	0.432 ± 0.095	0.398 ± 0.023	0.906 ± 0.26	0.603 ± 0.093	0.275 ± 0.032	0.259 ± 0.015	0.281 ± 0.062	0.275 ± 0.02	0.244 ± 0.02	0.218 ± 0.021
HELA CERVIX	0.991 ± 0.05	1.02 ± 0.092	0.977 ± 0.051	0.956 ± 0.048	0.697 ± 0.053	0.4 ± 0.052	0.168 ± 0.03	0.142 ± 0.015	1.04 ± 0.037	1.05 ± 0.1	0.0503 ± 0.001	0.0423 ± 0.0041	0.0277 ± 0.0016	0.0237 ± 0.0039	0.017 ± 0.0015	0.0247 ± 0.00076
CADOES1 SOFT TISSUE	0.969 ± 0.1	0.955 ± 0.099	0.883 ± 0.094	0.849 ± 0.1	0.565 ± 0.074	0.109 ± 0.011	0.0853 ± 0.005	0.0867 ± 0.0065	1 ± 0.062	0.994 ± 0.13	0.955 ± 0.039	0.846 ± 0.078	0.38 ± 0.11	0.188 ± 0.058	0.052 ± 0.0017	0.0457 ± 0.0015
